Experimental data from US11911407B2, “Therapies for cardiomyopathy” (UNIVERSITY COLLEGE DUBLIN, NATIONAL UNIVERSITY OF IRELAND, priority 2013, dated 2024).
“Also recorded” adds a separate entry of the source.

Tests used:
[1] = system: spontaneously hypertensive rats (SHR); assay: Hydroxyproline assay of total collagen in myocardium; type: in vivo, rat; settings: SHR-5AZA vs SHR-V, 12 weeks
Procedure: (§1) Approval from the local Animal Research Ethics Committee was sought and obtained to investigate the anti-fibrotic impact of 5-aza on cardiac function and fibrosis. Male spontaneously hypertensive rats (SHR) and their normotensive counterpart Wistar Kyote rats (WKY) were purchased from Charles River and utilised for the study. From 10 weeks of age, the animals received alternate day intra-peritoneal injection of either PBS (vehicle) or 5-aza (10 mg/kg) for 12 weeks. The 5-aza was purchased from Sigma, diluted in sterile PBS and filtered through a 0.22 μm filter. Aliquots were stored at −20° C. and were used within 5 days of reconstitution. The study design consisted of three groups of 10 animals; group 1 included 10 SHR rats who received 5-aza (SH R-5-aza); group 2 included 10 SHR rats who received PBS vehicle (SHR-V); group 3 included 10 WKY rats who received PBS vehicle (WKY-V). All rats were housed in the animal facility under identical conditions, with a 12 hour light-dark cycle.

HCF cells [2] = assay: DNA demethylation with 5-aza-2′-deoxycytidine in hypoxic HCF cells, pro-fibrotic protein expression; type: cell-based, human; settings: for expression of ASMA / expression of collagen 1 / expression of collagen 3: hypoxic fibroblasts with TGFβ; for expression of ASMA / expression of collagen 1 / expression of collagen 3 / pro-fibrotic effects of / responses to TGFβ: 1-5 μM; for pro-fibrotic effects of / responses to TGFβ: hypoxic fibroblasts, up to eight days
Procedure: Where indicated, HCF cells were exposed to a 1% oxygen environment for up to 8 days using a hypoxic chamber (Coy Laboratories). The effects of 10 ng/ml recombinant TGFβ1 treatment (R&D Systems) under these conditions were investigated. When required, cells were treated for 24 hours with 1 mM of the prolyl hydroxylase inhibitor DMOG (Sigma) to simulate hypoxia through the induction of HIF under normoxic conditions. Whole cell protein lysates were generated using RIPA Lysis Buffer (Millipore), containing a protease inhibitor cocktail (Roche). Nuclear protein extracts were obtained using the Ne-PeR Nuclear and Cytoplasmic extraction Reagents, according to manufacturer's instructions (Pierce Biotechnology). Protein concentrations were determined using the BCA Protein Assay Kit (Pierce). 10-20 μg of protein lysates were denatured, reduced and resolved on SDS-polyacrylamide gels by SDS-PAGE before transfer onto 0.45 μm pore size Immobilon-P polyvinylidene fluoride (PVDF) membranes (Millipore). Membranes were incubated with blocking buffer (TBS, 0.25% Tween-20, 0.1% serum from species that secondary antibody was raised in, and 5% fat free skimmed milk) for 1 hour at room temperature. Membranes were subsequently probed overnight with either anti-ASMA (Sigma), anti-collagen 1, anti-DNMT3B (Imgenex), or anti-hypoxia inducible factor 1α (HIF-1α) (Novus Biologicals). Detection of the specific binding of the primary antibody was achieved using HRP-conjugated secondary antibodies, followed by signal detection with Immobilon Western chemiluminescent HRP substrate (Millipore) according to the manufacturer's instructions. Anti-alpha tubulin (Sigma) was used to verify equal loading. For demethylation analysis, cells were treated with 1-5 μM 5-aza-2′-deoxycytidine (5-azadc; Sigma) for up to eight days. The effect of global DNA methylation inhibition on pro-fibrotic protein expression was assessed using Western blotting.

[3] = system: spontaneously hypertensive rats (SHR); assay: Doppler echocardiography in rat model of hypertensive heart disease; type: in vivo; settings: SHR-5AZA vs SHR-V, 10 mg/kg i.p. alternate day, 12 weeks
Procedure: Approval from the local Animal Research Ethics Committee was sought and obtained to investigate the anti-fibrotic impact of 5-aza on cardiac function and fibrosis. Male spontaneously hypertensive rats (SHR) and their normotensive counterpart Wistar Kyote rats (WKY) were purchased from Charles River and utilised for the study. From 10 weeks of age, the animals received alternate day intra-peritoneal injection of either PBS (vehicle) or 5-aza (10 mg/kg) for 12 weeks. The 5-aza was purchased from Sigma, diluted in sterile PBS and filtered through a 0.22 μm filter. Aliquots were stored at −20° C. and were used within 5 days of reconstitution. The study design consisted of three groups of 10 animals; group 1 included 10 SHR rats who received 5-aza (SH R-5-aza); group 2 included 10 SHR rats who received PBS vehicle (SHR-V); group 3 included 10 WKY rats who received PBS vehicle (WKY-V). All rats were housed in the animal facility under identical conditions, with a 12 hour light-dark cycle. Cardiac structure and function was assessed at baseline and at the end of the study (12 weeks) using Echocardiography. During the procedure, the animals were under inhaled anaesthesia (isoflurane 2%) and body temperature was maintained using a heat mat. Echocardiography assessment was performed using a Vevo 770 High-Resolution In Vivo Micro-Imaging System (Visualsonics) with a […] transducer. M-mode and 2-dimensional (2D) images were obtained in the parasternal long- and short-axis views. The interventricular septal thickness, posterior wall thickness, and LV diameter were measured in systole and diastole at the tips of the papillary muscle. Measurements were taken over three consecutive cardiac cycles and averaged. Left ventricular mass (LVM) was calculated according to Devereux's formula and indexed to tibial length (LVMi). Blinded analysis was performed by two separate independent observers.

[4] = system: spontaneously hypertensive rats (SHR); assay: Cardiac tissue gene expression of MYBP-C and ACTA1 by quantitative real-time PCR; type: in vivo, rat
Procedure: FIGS. 17 and 18 depict the effect of 5AZA treatment on cardiac expression levels of MYBP-C and ACTA1. Gene expression levels of MYBP-C and ACTA1 were assessed using quantitative real-time PCR in the cardiac tissue of SHR-V and SHR-AZA. […] Results represent mean and standard error of the mean. * p<0.05, *** p<0.001.
as §1

[5] = system: spontaneously hypertensive rats (SHR); assay: Myocyte area digital analysis of haematoxylin and eosin stained cardiac tissue; type: in vivo, rat; settings: SHR-5AZA vs SHR-V
Procedure: FIG. 16 depicts the effect of 5AZA treatment on myocyte area in vivo. […] Male spontaneously hypertensive rats (SHR) and their normotensive counterpart Wistar Kyote rats (WKY) were purchased from Charles River and utilised for the study. From 10 weeks of age, the animals received alternate day intra-peritoneal injection of either PBS (vehicle) or 5-aza (10 mg/kg) for 12 weeks. The 5-aza was purchased from Sigma, diluted in sterile PBS and filtered through a 0.22 μm filter. Aliquots were stored at −20° C. and were used within 5 days of reconstitution. The study design consisted of three groups of 10 animals; group 1 included 10 SHR rats who received 5-aza (SH R-5-aza); group 2 included 10 SHR rats who received PBS vehicle (SHR-V); group 3 included 10 WKY rats who received PBS vehicle (WKY-V). All rats were housed in the animal facility under identical conditions, with a 12 hour light-dark cycle.

cardiac myoblast cells = assay: Cardiac myoblast gene expression of MYBP-C and ACTA1 in vitro by real-time PCR; type: cell-based; settings: 4 day treatment
Procedure: Confirmation of the impact of DNA methylation inhibitors can up-regulate the expression levels of MYBP-C and ACTA1 was assessed in vitro using cardiac myoblast cells. Cells were grown in culture for 4 days either in the presence or absence of 5-azacytidine (5AZA) or 5-aza-2-deoxycytidine (5AZA_DC). Gene expression was quantified using real-time PCR.

[6] = system: spontaneously hypertensive rats (SHR); assay: Picrosirius red staining with automated digital quantification of perivascular collagen; type: in vivo, rat; settings: SHR-5AZA vs SHR-V, 12 weeks
Procedure: as §1, with “cycle. […]” for “cycle.”
The degree of collagen deposition was quantified by automated digital image analysis. […] A positive pixel count algorithm was used to automatically quantify the area occupied by the dark pink stain colours representing collagen within each scanned slide image. […] A collagen volume fraction was calculated based on the percent of dark pink collagen staining quantified within a tissue section.

HCF cells [7] = assay: DMOG treatment of HCF cells in normoxia (Western blot); type: cell-based, human; settings: 1 mM DMOG, 24 hours
Procedure: Primary human cardiac fibroblast cells from the adult ventricle (HCF) were purchased from ScienCell Research Laboratories. Primary cells were derived from a single person. Until required for experiments, cells were cultured and maintained in Dulbecco's modified eagles medium (DMEM) (Gibco), supplemented with 10% Fetal Bovine Serum (Gibco) and penicillin-streptomycin antibiotics (Gibco) in a 5% CO2 humidified incubator kept at 37° C.
(§2) Where indicated, HCF cells were exposed to a 1% oxygen environment for up to 8 days using a hypoxic chamber (Coy Laboratories). The effects of 10 ng/ml recombinant TGFβ1 treatment (R&D Systems) under these conditions were investigated. When required, cells were treated for 24 hours with 1 mM of the prolyl hydroxylase inhibitor DMOG (Sigma) to simulate hypoxia through the induction of HIF under normoxic conditions.
Whole cell protein lysates were generated using RIPA Lysis Buffer (Millipore), containing a protease inhibitor cocktail (Roche). Nuclear protein extracts were obtained using the Ne-PeR Nuclear and Cytoplasmic extraction Reagents, according to manufacturer's instructions (Pierce Biotechnology). Protein concentrations were determined using the BCA Protein Assay Kit (Pierce). […]

HCF cells [8] = assay: TGFβ1 treatment of HCF cells, quantitative real-time PCR; type: cell-based, human
Procedure: as §2
Gene expression changes were measured in HCF cells using QPCR as described in human cardiac tissue analysis methods section. RNA isolation from cells was achieved using NucleoSpin RNA II Kit (Macherey-Nagel). QPCR data was analysed using the delta delta CT method.

[9] = 10 ng/ml TGFβ1, 8 days hypoxia (1% oxygen)

With Nc1ncn([C@@H]2O[C@H](CO)[C@@H](O)[C@H]2O)c(=O)n1 [5AZA, 5-azacytidine] the “total collagen / collagen deposition within the myocardium (hydroxyproline)” value [1] was “significant reduction”, the “pro-fibrotic impact of hypoxia” value (HCF cells [2]; FIGS. 7A-7C) was “reverses” and the cardiac hypertrophy [3] was “significant reduction”. For the same molecule, the “E prime (E′), diastolic dysfunction” value ([3]; 10 mg/kg) was “significantly approved; also recorded: significantly improved”, the “Ejection fraction (EF)” value ([3]; 10 mg/kg) was “significantly increased; also recorded: significantly improved” and the “interventricular septum diameter (in diastole)” value ([3]; 10 mg/kg) was “significant reduction; also recorded: reduced”. The “left ventricular mass index (LVMi)” value ([3]; 10 mg/kg) was “significant reduction; also recorded: reduced”, the “ACTA1 expression in cardiac tissue” value ([4]; SHR animals treated with 5AZA) was “significant increase” and the “MYBP-C expression within the myocardium” value ([4]; SHR animals treated with 5AZA) was “significant increase”. For the same molecule, the “increase in ACTA1 gene expression in cardiac tissue” value ([4]; SHR-AZA vs SHR-V) was 4 fold, the “increase in MYBP-C gene expression in cardiac tissue” value ([4]; SHR-AZA vs SHR-V) was 4 fold and the myocyte area [5] was “significantly smaller; also recorded: significant decrease”. For the same molecule, the “ACTA1 gene expression in cardiac myoblast cells” value (cardiac myoblast cells) was “significant increase”, the “MYBP-C gene expression in cardiac myoblast cells” value (cardiac myoblast cells) was “significant increase” and the perivascular collagen [6] was “significantly reduced; also recorded: significant decrease”.
With Nc1ncn([C@H]2C[C@H](O)[C@@H](CO)O2)c(=O)n1 [5AZA_DC, 5-aza-2′-deoxycytidine] the “expression of ASMA” value (HCF cells [2]) was “reduced expression”, the “expression of collagen 1” value (HCF cells [2]) was “reduced expression” and the “expression of collagen 3” value (HCF cells [2]) was “reduced expression”. The “expression of ASMA” value (HCF cells [2]; listed as 5-aza2dC) was “significantly reduced”, the “expression of collagen 1” value (HCF cells [2]; listed as 5-aza2dC) was “significantly reduced” and the “expression of collagen 3” value (HCF cells [2]; listed as 5-aza2dC) was “significantly reduced”. The “pro-fibrotic effects of / responses to TGFβ” value (HCF cells [2]) was “significantly reduced”, the “pro-fibrotic effects of / responses to TGFβ” value (HCF cells [2]; listed as 5-aza2dC) was “inhibited” and the “ACTA1 gene expression in cardiac myoblast cells” value (cardiac myoblast cells) was “significant increase”. For the same molecule, the “MYBP-C gene expression in cardiac myoblast cells” value (cardiac myoblast cells) was “significant increase”.
COC(=O)CNC(=O)C(=O)OC [DMOG] was tested, and the “expression of DNMT3B” value (HCF cells [7]) was “increased expression” and the “nuclear HIF-1α protein expression” value (HCF cells [7]) was “stabilises”.
With “TGFβ1: human recombinant transforming growth factor beta 1, pro-fibrotic cytokine” the ASMA gene expression (HCF cells [8]; 10 ng/ml TGFβ1) was “significantly increased”, the “collagen 1 gene expression” value (HCF cells [8]; 10 ng/ml TGFβ1) was “significantly increased” and the ASMA gene expression (HCF cells [8]; [9]) was “further enhanced”. For the same molecule, the “collagen 1 gene expression” value (HCF cells [8]; [9]) was “further enhanced”.
